Measurements from US9822414B2, “In vitro method for predicting in vivo genotoxicity of chemical compounds” (priority 2011, dated 2017).
Values joined by “and” are separate entries in the source; they are usually repeats but may differ in a detail not shown here. Equal entries are not always repeated. Where two headings read alike, the source gives them in different places.

Tests used:
[1] = test system: conventional in vitro genotoxicity assays; conditions: cited from earlier work
rodents = conditions: cited from earlier work
SLC40A1 = assay: Gene expression of SLC40A1 in HepG2 cells exposed to compound (microarray, log2 treatment:control ratio); format: cell-based, human; conditions: HepG2 cells; for SLC40A1: expression versus reference value, single measurement of three; for Log2 treatment: control ratio SLC40A1: 24 h exposure, Ames negative compounds, one line per replicate of triplicate experiments
C10orf65/HOGA1 = assay: Gene expression of C10orf65/HOGA1 in HepG2 cells exposed to compound (microarray, log2 treatment:control ratio); format: cell-based, human; conditions: for C10orf65/HOGA1: expression versus reference value, single measurement of three; for Log2 treatment: control ratio C10orf65/HOGA1: 24 h exposure, Ames negative compounds, one line per replicate of triplicate experiments
Salmonella typhimurium = conditions: cited from earlier work
PNMA6A = assay: Gene expression of PNMA6A in HepG2 cells exposed to compound (microarray, log2 treatment:control ratio); format: cell-based, human; conditions: HepG2 cells; for Log2 treatment: control ratio PNMA6A: 24 h exposure, Ames negative compounds, one line per replicate of triplicate experiments; for PNMA6A: expression versus reference value, single measurement of three

Compound	In vitro GTX [1]	In vivo GTX (rodents; in vivo)	Standard (rodents; in vivo)	SLC40A1 (SLC40A1)	C10orf65/HOGA1 (C10orf65/HOGA1)	Ames (Salmonella typhimurium; Ames results based on NTP data)	At least ⅔ genes +? (HepG2 cell)	Average result over three measurements (HepG2 cell)	Prediction (class prediction results using the method of the invention) (HepG2 cell)	Log2 treatment: control ratio SLC40A1 (SLC40A1)	Log2 treatment: control ratio PNMA6A (PNMA6A)	Log2 treatment: control ratio C10orf65/HOGA1 (C10orf65/HOGA1)	Ames (Salmonella typhimurium)	further results
CC(=O)Nc1ccc(O)cc1 [APAP]	+	+	GTX	− (below the reference value)	− (below the reference value)	−								
ClC(Cl)Br [BDCM]	+	−	NGTX	− (below the reference value)			NGTX	NGTX	NGTX	−0.891 and −0.178 and −0.017	0.22 and −0.289 and −0.185	0.113 and 0.258 and 0.086	−	PNMA6A (PNMA6A): − (below the reference value)
c1ccc2c(c1)cc1ccc3cccc4ccc2c1c34 [BaP]	+	+												
O=C1CCCCCN1 [CAP]	−	−	NGTX	− (below the reference value)		−		NGTX	NGTX+	−0.607 and −0.032 and 0.265	0.312 and −0.168 and −0.165	0.203 and 0.223 and 0.138		
ClC(Cl)(Cl)Cl [CCI4]				− (below the reference value)										Standard (rodents; standard in vivo genotoxicity designation): NGTX
ClC(Cl)(Cl)Cl [CCl4]	+	−							NGTX+	−0.888 and −0.041 and −0.185	0.412 and −0.425 and −0.14	0.361 and 0.073 and −0.083	−	
O=c1ccc2ccccc2o1 [Cou]	−	−	NGTX	− (below the reference value)	− (below the reference value)	−	NGTX	NGTX	NGTX	−0.215 and −0.309	0.073 and 0.081	−0.481 and −0.483		Log2 treatment: control ratio SLC40A1 (SLC40A1; listed as COU): −0.104; Log2 treatment: control ratio PNMA6A (PNMA6A; listed as COU): 0.14; PNMA6A (PNMA6A): − (below the reference value); Log2 treatment: control ratio C10orf65/HOGA1 (C10orf65/HOGA1; listed as COU): −0.069
COc1cc(/C=C/C(=O)CC(=O)/C=C/c2ccc(O)c(OC)c2)ccc1O [Cur]	+	−	NGTX	− (below the reference value)	− (below the reference value)	−	NGTX	NGTX	NGTX	0.174 and 0.252 and 0.253	−0.138 and −0.135 and 0.263	0.113 and 0.028 and −0.293		
CCCCC(CC)COC(=O)c1ccccc1C(=O)OCC(CC)CCCC (stereo not drawn) [DEHP]	−		NGTX	− (below the reference value)	− (below the reference value)		NGTX	NGTX	NGTX				−	Log2 treatment: control ratio SLC40A1 (SLC40A1; listed as DEPH): 0.249 and −0.387 and 0.234; Log2 treatment: control ratio PNMA6A (PNMA6A; listed as DEPH): −0.264 and −0.841 and −0.034; PNMA6A (PNMA6A): − (below the reference value)
CC/C(=C(/CC)c1ccc(O)cc1)c1ccc(O)cc1 [DES]	+	+	GTX	+ (above the reference value)	+ (above the reference value)	−	GTX	GTX	GTX	1.504 and 0.717 and 0.723	0.286 and 0.203 and 0.135	0.146 and 0.516 and 0.206		
CN(C)N=O [DMN]	+	+						GTX	GTX+				+	Standard (in vivo genotoxicity designation) (rodents; in vivo): GTX
O=C(O)Cc1ccccc1Nc1c(Cl)cccc1Cl [Diclo]			NGTX	− (below the reference value)	− (below the reference value)									
